ChEMBL document CHEMBL1201862, “PubChem BioAssay data set” (2004)
Activity calls are given as the source filed them.

Legend:
[1] = inhibitors of firefly luciferase expression or activity, dose response, H4 neuroglioma cells, luminescence (AID 1990); assay type: functional, cell-based
[2] = insulin promoter down-regulators in MIN6 cells, imaging, high-content screening, mouse beta cells (AID 1628); assay type: functional
[3] = Luminescence Cell-Based Dose Response HTS to Identify Inhibitors of 5'UTR Stem-Loop Driven Prion Protein mRNA Translation in H4 Neuroglioblastoma Cells. [Related pubchem assays: 1827 (Project Summary), 1813 (Primary HTS)]; assay type: functional
[4] = cytotoxicity in MIN6 insulinoma cells, dose response, cytotoxicity control, cell-based, mouse insulinoma (AID 2122); assay type: functional;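 further: confirmatory high-throughput counterscreen run to flag cytotoxic compounds; mouse MIN-6 beta cells carrying an insulin promoter eGFP reporter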
[5] = inhibitors of SNCA 5'UTR-driven reporter translation, confirmation, H4 neuroglioma cells, luminescence (AID 1988); assay type: functional, cell-based
[6] = inhibitors of intracellular T. cruzi replication, confirmation, NIH3T3 host cells, beta-gal luminescence (AID 2044); assay type: functional, cell-based;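 further: intracellular parasites grown in NIH/3T3 mouse fibroblasts as host cells; luminescent beta-galactosidase reporter signal from transgenic T. cruzi replicating inside host cells; inhibitors lower the luminescence signal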
[7] = cytotoxicity toward NIH3T3 fibroblasts, dose response, counter-screen, cell-based, ATP luminescence, mouse fibroblasts (AID 2010); assay type: functional;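 further: cells exposed to compound for about 90 hours before reading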
Vero [8] = assay: Vero cell cytotoxicity, cytotoxicity control for flavivirus capping enzyme inhibitors (AID 588742); assay type: functional; conditions: Chlorocebus sabaeus
Genome polyprotein = Genome polyprotein (dengue virus type 2, UniProt P29990); assay: Dengue-2 NS5 methyltransferase inhibitors, primary screen, biochemical, confirmation dose response (AID 588689); assay type: functional
[9] = molecular target: T1, Polyadenylate-binding protein 1 (Homo sapiens, UniProt P11940); assay: PABP1 MLLE–PAM2 interaction inhibitors, dose response, miRNA deadenylation inhibitor project, biochemical, fluorescence polarization, Cy5-PAM2 peptide, secondary (AID 602260); assay type: functional; conditions: read-out: IC50_Mean
[10] = molecular target: T1, Polyadenylate-binding protein 1; assay: PABP1 MLLE–PAM2 binding inhibitor potency, dose response, biochemical, fluorescence polarization, FITC-PAM2 peptide (AID 602259); assay type: functional; conditions: read-out: IC50_Mean
BJ [11] = assay: cytotoxicity toward BJ-TERT fibroblasts, dose response, cell-based, RAS-independent, luminescence (AID 1933); assay type: functional; conditions: Homo sapiens
BJ [12] = assay: cells; assay type: functional, cell-based; conditions: Homo sapiens
[13] = molecular target: Luciferin 4-monooxygenase (Photinus pyralis, UniProt P08659); assay: firefly luciferase enzyme inhibitors, dose response, biochemical, luminescence (AID 1891)
[14] = Luminescence Cell-Based Dose Confirmation HTS to Identify Inhibitors of Platelet Dense Granule Release. [Related pubchem assays: 1663 (Primary HTS), 1678 (Summary of Project)]; assay type: functional
BJ [15] = assay: cytotoxicity toward BJ-TERT-LT-ST fibroblasts, dose response, cell-based, RAS-independent, luminescence (AID 1935); assay type: functional; conditions: Homo sapiens;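 further: BJ fibroblasts immortalized with TERT plus LT and ST oncogenes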
[16] = cytotoxicity toward DRD oncogenic fibroblasts, dose response, cell-based, non-viral oncogenic, luminescence (AID 1934); assay type: functional; conditions: Homo sapiens
HEK293 = assay: inhibitors of LMP1-driven NF-kB reporter, dose response, cell-based, HEK293, luciferase, cherry-pick (AID 588343); assay type: functional; conditions: Homo sapiens
Cytochrome P450 1A2 = molecular target: T2, Cytochrome P450 1A2 (Homo sapiens, UniProt P05177);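 further: PubChem cytochrome P450 panel assay, CYP1A2 panel member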
T2 sequence (P05177 whole entry): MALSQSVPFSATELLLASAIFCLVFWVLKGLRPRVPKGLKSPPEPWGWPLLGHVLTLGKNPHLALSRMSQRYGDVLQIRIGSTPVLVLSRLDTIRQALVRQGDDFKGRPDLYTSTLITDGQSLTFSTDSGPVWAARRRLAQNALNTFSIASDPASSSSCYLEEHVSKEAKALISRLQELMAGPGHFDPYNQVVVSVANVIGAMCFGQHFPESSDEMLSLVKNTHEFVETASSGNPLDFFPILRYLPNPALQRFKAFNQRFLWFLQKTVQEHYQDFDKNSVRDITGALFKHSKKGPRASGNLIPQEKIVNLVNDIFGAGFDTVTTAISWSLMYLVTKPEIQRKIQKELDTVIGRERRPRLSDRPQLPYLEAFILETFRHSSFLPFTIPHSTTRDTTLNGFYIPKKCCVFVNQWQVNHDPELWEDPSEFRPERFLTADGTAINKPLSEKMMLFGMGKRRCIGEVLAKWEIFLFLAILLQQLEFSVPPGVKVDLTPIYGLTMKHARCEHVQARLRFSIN

Cytochrome P450 2C9 = Cytochrome P450 2C9 (Homo sapiens, UniProt P11712)
Cytochrome P450 3A4 = Cytochrome P450 3A4 (Homo sapiens, UniProt P08684);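 further: CYP3A4 tested as one member of a cytochrome P450 panel screen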
[17] = NIH-3T3 fibroblast cytotoxicity, dose response, cytotoxicity control, cell-based, fluorescence, Alamar Blue, secondary assay (AID 2327); assay type: functional;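 further: NIH-3T3 mouse fibroblasts cultured with fluconazole at 8 µg/mL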
Leucine aminopeptidase = molecular target: T3, Leucine aminopeptidase (Plasmodium falciparum 3D7, UniProt Q8IL11); assay: P. falciparum M17LAP inhibitors, primary screen, biochemical, fluorogenic H-Leu-NHMec substrate, 1536-well (AID 1619); assay type: functional
T3 sequence (Q8IL11 whole entry): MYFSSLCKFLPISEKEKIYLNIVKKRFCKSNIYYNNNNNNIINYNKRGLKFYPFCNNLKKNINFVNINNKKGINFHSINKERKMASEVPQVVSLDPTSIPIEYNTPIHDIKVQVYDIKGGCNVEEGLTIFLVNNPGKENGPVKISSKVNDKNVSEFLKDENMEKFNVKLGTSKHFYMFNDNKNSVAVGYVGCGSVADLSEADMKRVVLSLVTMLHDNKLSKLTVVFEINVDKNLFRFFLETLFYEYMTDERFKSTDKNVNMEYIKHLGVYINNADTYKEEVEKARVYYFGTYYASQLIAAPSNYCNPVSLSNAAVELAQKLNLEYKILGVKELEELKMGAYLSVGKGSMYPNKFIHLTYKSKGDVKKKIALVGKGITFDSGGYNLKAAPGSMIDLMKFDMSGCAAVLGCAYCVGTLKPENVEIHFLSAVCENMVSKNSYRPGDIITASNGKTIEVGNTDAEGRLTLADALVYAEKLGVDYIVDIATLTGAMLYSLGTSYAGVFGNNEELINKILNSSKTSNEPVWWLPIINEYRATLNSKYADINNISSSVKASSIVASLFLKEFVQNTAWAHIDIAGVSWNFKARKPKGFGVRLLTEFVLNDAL

[18] = C. albicans growth with fluconazole, confirmation, fluorescence, retest (AID 2467); assay type: functional, cell-based
[19] = molecular target: T4, Short transient receptor potential channel 4 (Mus musculus, UniProt Q9QUQ5); assay: mouse TRPC4 channel activators, dose response, cell-based, HEK293 TRPC4/mu-opioid, Fluo-4 calcium (AID 434937); assay type: functional
T4 sequence (Q9QUQ5 whole entry): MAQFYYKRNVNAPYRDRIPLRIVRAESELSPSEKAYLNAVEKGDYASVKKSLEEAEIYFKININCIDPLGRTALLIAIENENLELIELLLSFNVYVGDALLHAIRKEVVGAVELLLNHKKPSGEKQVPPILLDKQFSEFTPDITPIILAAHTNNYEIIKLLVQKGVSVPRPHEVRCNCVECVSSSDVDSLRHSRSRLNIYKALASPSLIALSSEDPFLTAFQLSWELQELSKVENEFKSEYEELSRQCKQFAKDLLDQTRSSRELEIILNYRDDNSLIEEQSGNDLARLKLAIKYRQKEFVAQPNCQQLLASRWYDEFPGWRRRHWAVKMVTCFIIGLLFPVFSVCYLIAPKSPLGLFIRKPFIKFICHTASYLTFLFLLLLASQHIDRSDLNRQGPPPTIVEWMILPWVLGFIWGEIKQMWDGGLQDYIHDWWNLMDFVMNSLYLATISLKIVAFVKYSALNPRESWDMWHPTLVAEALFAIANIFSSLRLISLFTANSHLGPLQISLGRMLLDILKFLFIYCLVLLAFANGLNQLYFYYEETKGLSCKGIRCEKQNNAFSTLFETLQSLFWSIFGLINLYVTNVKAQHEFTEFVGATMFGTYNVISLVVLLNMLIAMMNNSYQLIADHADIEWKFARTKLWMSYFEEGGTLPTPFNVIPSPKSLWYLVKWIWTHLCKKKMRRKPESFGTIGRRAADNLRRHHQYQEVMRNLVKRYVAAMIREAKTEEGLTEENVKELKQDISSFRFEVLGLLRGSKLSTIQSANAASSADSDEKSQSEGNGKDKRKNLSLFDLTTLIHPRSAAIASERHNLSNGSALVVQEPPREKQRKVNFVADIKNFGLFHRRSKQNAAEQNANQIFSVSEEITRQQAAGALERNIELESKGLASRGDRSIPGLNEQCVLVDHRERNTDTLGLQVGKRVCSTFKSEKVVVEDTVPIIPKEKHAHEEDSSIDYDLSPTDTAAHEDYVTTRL

[20] = molecular target: Heat shock protein HSP 90-alpha (Homo sapiens, UniProt P07900); assay type: functional, organism-based
[21] = molecular target: T5, High affinity choline transporter 1 (Homo sapiens, UniProt Q9GZV3); assay: CHT inhibitors, dose response, cell-based, 5-point CRC, membrane potential dye (AID 504840); assay type: functional
T5 sequence (Q9GZV3 whole entry): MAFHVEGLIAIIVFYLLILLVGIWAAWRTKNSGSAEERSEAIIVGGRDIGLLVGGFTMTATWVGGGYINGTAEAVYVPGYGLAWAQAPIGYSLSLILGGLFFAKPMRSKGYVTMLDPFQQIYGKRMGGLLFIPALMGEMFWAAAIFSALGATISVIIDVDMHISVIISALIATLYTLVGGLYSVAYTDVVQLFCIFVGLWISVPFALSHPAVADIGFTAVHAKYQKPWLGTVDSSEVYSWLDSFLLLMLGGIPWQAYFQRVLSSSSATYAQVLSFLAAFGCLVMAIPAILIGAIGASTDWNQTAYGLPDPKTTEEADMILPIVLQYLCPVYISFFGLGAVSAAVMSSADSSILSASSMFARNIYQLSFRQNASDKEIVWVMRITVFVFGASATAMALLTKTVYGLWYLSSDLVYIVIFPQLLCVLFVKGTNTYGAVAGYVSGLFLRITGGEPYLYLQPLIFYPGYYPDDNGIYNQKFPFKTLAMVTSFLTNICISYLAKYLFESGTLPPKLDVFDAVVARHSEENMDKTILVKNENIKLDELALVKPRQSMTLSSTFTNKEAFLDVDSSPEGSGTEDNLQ

Vero [22] = assay: cells; assay type: functional, cell-based; conditions: Chlorocebus sabaeus
Vero [23] = assay: cells; assay type: functional; conditions: Chlorocebus sabaeus

Cytochrome P450 2C9, sequence (P11712 whole entry): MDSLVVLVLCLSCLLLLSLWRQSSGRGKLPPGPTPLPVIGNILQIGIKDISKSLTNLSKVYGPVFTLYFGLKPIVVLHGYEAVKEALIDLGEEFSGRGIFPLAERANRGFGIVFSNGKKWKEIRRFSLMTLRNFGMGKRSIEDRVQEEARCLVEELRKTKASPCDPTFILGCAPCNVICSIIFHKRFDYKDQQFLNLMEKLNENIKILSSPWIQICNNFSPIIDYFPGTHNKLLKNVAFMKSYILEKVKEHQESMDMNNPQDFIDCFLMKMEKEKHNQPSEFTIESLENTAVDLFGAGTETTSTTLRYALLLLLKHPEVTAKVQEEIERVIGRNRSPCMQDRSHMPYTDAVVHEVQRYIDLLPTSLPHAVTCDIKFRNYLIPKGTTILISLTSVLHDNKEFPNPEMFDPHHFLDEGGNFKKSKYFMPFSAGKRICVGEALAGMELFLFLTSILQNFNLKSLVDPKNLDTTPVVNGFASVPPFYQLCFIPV
T1 sequence (P11940 whole entry): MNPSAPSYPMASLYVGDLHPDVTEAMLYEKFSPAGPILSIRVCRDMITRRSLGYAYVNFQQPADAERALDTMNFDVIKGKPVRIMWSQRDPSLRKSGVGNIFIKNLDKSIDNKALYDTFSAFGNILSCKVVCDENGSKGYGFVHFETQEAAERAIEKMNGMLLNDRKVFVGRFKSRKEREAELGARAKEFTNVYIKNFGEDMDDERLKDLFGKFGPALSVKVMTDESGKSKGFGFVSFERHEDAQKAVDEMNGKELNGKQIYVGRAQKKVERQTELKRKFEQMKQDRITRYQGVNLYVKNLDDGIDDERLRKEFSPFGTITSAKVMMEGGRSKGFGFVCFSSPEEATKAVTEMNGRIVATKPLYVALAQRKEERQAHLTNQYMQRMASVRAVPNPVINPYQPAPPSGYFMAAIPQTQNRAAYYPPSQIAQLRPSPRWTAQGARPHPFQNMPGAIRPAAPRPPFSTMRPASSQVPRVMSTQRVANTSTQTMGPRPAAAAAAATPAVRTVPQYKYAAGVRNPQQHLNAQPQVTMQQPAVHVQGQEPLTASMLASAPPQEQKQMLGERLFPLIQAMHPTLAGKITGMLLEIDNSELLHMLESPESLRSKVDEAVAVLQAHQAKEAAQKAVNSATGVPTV
Luciferin 4-monooxygenase, sequence (P08659 whole entry): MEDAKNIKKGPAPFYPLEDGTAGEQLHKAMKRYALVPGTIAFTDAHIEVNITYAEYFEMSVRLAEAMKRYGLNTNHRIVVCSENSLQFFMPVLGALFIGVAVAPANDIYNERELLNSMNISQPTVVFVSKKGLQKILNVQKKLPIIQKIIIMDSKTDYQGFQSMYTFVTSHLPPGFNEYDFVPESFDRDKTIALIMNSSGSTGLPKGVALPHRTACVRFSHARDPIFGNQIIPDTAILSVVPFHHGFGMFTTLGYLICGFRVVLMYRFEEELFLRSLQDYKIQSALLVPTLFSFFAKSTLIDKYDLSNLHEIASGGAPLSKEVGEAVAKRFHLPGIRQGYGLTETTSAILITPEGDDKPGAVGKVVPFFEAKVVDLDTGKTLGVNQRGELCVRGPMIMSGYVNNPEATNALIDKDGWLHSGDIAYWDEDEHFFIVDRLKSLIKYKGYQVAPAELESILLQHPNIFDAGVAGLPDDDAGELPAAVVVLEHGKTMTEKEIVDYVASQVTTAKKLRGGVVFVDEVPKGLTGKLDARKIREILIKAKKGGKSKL
Genome polyprotein, sequence (P29990 2492-3391 limits assumed): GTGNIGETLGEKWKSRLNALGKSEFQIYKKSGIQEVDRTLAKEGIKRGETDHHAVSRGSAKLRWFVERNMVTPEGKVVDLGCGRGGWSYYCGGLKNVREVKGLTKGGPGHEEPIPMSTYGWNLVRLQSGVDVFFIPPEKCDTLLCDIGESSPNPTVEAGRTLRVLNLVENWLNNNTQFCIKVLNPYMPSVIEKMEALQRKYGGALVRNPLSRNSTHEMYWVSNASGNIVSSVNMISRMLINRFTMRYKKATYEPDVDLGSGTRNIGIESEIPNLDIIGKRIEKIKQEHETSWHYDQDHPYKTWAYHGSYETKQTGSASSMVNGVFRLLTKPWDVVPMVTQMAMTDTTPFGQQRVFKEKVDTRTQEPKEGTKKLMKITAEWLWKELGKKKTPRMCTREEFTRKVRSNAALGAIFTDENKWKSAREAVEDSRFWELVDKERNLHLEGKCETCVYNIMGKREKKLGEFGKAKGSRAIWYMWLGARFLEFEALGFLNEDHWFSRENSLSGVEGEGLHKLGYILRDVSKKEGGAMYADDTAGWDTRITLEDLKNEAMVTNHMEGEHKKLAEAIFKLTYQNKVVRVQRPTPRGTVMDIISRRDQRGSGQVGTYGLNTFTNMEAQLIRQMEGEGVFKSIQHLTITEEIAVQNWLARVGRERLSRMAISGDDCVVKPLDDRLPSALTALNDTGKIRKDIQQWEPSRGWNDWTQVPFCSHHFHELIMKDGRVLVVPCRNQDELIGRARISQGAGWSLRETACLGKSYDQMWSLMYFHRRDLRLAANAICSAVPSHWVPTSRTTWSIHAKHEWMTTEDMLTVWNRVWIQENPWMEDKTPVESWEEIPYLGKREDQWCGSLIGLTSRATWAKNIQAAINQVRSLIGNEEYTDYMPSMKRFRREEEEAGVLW
Cytochrome P450 3A4, sequence (P08684 whole entry): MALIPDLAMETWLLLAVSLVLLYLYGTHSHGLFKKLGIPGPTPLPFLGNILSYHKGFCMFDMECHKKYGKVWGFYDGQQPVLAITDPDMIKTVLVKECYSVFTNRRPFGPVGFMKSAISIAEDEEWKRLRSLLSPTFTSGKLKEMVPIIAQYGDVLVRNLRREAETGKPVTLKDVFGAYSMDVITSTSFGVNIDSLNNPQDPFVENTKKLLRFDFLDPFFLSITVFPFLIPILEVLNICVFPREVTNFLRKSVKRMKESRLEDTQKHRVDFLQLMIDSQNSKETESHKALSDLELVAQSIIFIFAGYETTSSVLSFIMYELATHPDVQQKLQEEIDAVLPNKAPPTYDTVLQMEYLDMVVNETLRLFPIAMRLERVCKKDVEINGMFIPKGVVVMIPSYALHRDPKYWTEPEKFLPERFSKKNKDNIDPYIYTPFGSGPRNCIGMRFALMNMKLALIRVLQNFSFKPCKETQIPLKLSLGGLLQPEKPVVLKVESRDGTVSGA

## O=C1c2ccc3c4c(ccc(c24)C(=O)N1CCCCO)C(=O)N(CCCCO)C3=O
[1]
  EC50: > 120 µM (not active)
[2]
  IC50: 2.96 µM (active)
[3]
  EC50: 13.6 µM (active)
[4]
  IC50: 1.99 µM (active)
[5]
  EC50: 3.4 µM (active)
[6]
  EC50: 2.25 µM (active)
[7]
  EC50: 4.23 µM (active)
Vero [8]
  CC50: 5.55 µM (active)
Genome polyprotein
  IC50: > 100 µM (active)
[9]
  IC50: > 66 µM (inactive)
[10]
  IC50: 23.8 µM (inactive)

## Cn1c(/C=C/c2ccccc2)nc2ccccc21
BJ [11]
  EC50: 10.8 µM (active)
BJ [12]
  EC50: 7.95 µM (active)
[13]
  EC50: 1.09 µM (active)
[14]
  EC50: 1.89 µM (active)
BJ [15]
  EC50: 18.9 µM (active)
[16]
  EC50: 8.49 µM (active)
HEK293
  AC50: 3.81 µM (active)

## CCOC(=O)c1c(C)c(C(=O)N2CCCCCC2)c(C)n1C
Cytochrome P450 1A2
  AC50: 25.1 µM (inconclusive)
Cytochrome P450 2C9
  AC50: inconclusive

## COCCCNC(=O)C1CCN(S(=O)(=O)N(CC(C)C)CC(C)C)CC1
Cytochrome P450 3A4
  AC50: 22.4 µM (inconclusive)
Cytochrome P450 2C9
  AC50: inconclusive

## Cc1cccc(C(=O)NC(=S)NNC(=O)Cc2ccccc2)c1
[17]
  EC50: > 150 µM (inactive)
Leucine aminopeptidase
  IC50: 56.6 µM (active)
[18]
  EC50: 1.14 µM (active)
[19]
  EC50: 4.22 µM (active)
[20]
  AC50: 4.66 µM (active)
[21]
  IC50: 13.2 µM (active)
Vero [22]
  IC50: 22.7 µM (active)
Vero [23]
  CC50: > 25 µM (active)

## c1ccc(CCCN2CCN(CCOC(c3ccccc3)c3ccccc3)CC2)cc1
HEK293
  AC50: 23.8 µM (active)
